In patent US20170196913A1, “ENHANCEMENT OF GLUCOSE-STIMULATED INSULIN SECRETION BY CELLS THROUGH INDUCTION OF CELLULAR SENESCENCE” (YISSUM RESEARCH DEVELOPMENT COMPANY OF THE HEBREW …, priority 2016, published 2017):

How the values were obtained:
Type in all cases: cell-based, human
EndoC-βH2 cells [1] = experiment: Mitochondrial activity (membrane potential) by TMRE staining, FACS, of Cre-infected EndoC-βH2 cells; details: EndoC-βH2 cells three weeks after Cre infection
EndoC-βH2 cells [2] = experiment: Glucose stimulated insulin secretion (GSIS) of Cre-infected EndoC-βH2 cells, ELISA; design: GSIS (insulin levels secreted): dose or concentration left out as unconfirmed; details: EndoC-βH2 cells infected with Cre, versus vehicle
EndoC-βH2 cells [3] = experiment: Cell size (FSC) by FACS of Cre-infected EndoC-βH2 cells; details: EndoC-βH2 cells three weeks after Cre infection, 250 nM Torin1 versus vehicle

O=C(Nc1ccccc1)c1cc([N+](=O)[O-])ccc1Cl [GW9662]
mitochondrial activity (TMRE staining) (EndoC-βH2 cells [1]; GW9662 50 mM twice a week, versus vehicle): reduced
GSIS (insulin levels secreted) (EndoC-βH2 cells [2]; GW9662 twice a week for 3 weeks): reduced GSIS

CCC(=O)N1CCN(c2ccc(-n3c(=O)ccc4cnc5ccc(-c6cnc7ccccc7c6)cc5c43)cc2C(F)(F)F)CC1 [Torin1]
mitochondrial activity (TMRE staining) (EndoC-βH2 cells [1]; 250 nM Torin1 versus vehicle): reduced
cell size (FSC) (EndoC-βH2 cells [3]): reduced size
levels of insulin secretion (EndoC-βH2 cells [2]; 250 nM Torin1 starting 3 days after infection, for 3 weeks, low glucose 2.8 mM then high glucose 16.7 mM for 1 hour): lower levels of insulin secretion
